Experimental data reported in ChEMBL document CHEMBL1159126, “Salicylanilide carbamates: antitubercular agents active against multidrug-resistant Mycobacterium tuberculosis strains” (Bioorg Med Chem, 2010).
≈ marks a conversion by molar mass, not a printed value.

Legend:
[1] = tested on: Mycobacterium tuberculosis; assay: microbe, parasite or virus in culture; conditions: 331/88, 336 h
Description: Antimycobacterial activity against Mycobacterium tuberculosis 331/88 after 14 days by micromethod

Mycobacterium kansasii [2] = assay: Antimycobacterial activity against Mycobacterium kansasii 235/80 after 21 days by micromethod; type: functional; conditions: 235/80, 504 h
[3] = tested on: Mycobacterium tuberculosis; assay: microbe, parasite or virus in culture; conditions: 331/88, 504 h
Description: Antimycobacterial activity against Mycobacterium tuberculosis 331/88 after 21 days by micromethod

[4] = Partition coefficient, log P of the compound; type: physicochemical; conditions: octanol/water
Mycobacterium kansasii [5] = assay: Antimycobacterial activity against Mycobacterium kansasii 6509/96 after 14 days by micromethod; type: functional; conditions: 6509/96, 336 h
Mycobacterium kansasii [6] = assay: Antimycobacterial activity against Mycobacterium kansasii 235/80 after 14 days by micromethod; type: functional; conditions: 235/80, 336 h
Mycobacterium avium [7] = assay: Antimycobacterial activity against Mycobacterium avium 330/88 after 21 days by micromethod; type: functional; conditions: 330/88, 504 h
Mycobacterium kansasii [8] = assay: Antimycobacterial activity against Mycobacterium kansasii 6509/96 after 21 days by micromethod; type: functional; conditions: 6509/96, 504 h
Mycobacterium avium [9] = assay: Antimycobacterial activity against Mycobacterium avium 330/88 after 14 days by micromethod; type: functional; conditions: 330/88, 336 h
[10] = Toxicity against human HCT8 cells after 72 hrs by XTT assay; type: cell-based, HCT-8

SMILES | MIC [1] [µM] | MIC (Mycobacterium kansasii [2]) [µM] | MIC [3] [µM] | logP [4] | MIC (Mycobacterium kansasii [5]) [µM] | MIC (Mycobacterium kansasii [6]) [µM] | MIC (Mycobacterium avium [7]) [µM] | MIC (Mycobacterium kansasii [8]) [µM] | MIC (Mycobacterium avium [9]) [µM] | EC50 at 72 h [10] [µM]
CCCCCCCCCNC(=O)Oc1ccc(Cl)cc1C(=O)Nc1ccc(Cl)cc1 | 2 (≈ 0.903 µg/mL) | 4 (≈ 1.81 µg/mL) | 2 (≈ 0.903 µg/mL) | 6.78 | 4 (≈ 1.81 µg/mL) | 4 (≈ 1.81 µg/mL) | 16 (≈ 7.22 µg/mL) | 4 (≈ 1.81 µg/mL) | 8 (≈ 3.61 µg/mL) | –
CCCCCCCCCCNC(=O)Oc1ccc(Cl)cc1C(=O)Nc1ccc(Cl)cc1 | 2 (≈ 0.931 µg/mL) | 8 (≈ 3.72 µg/mL) | 2 (≈ 0.931 µg/mL) | 7.19 | 8 (≈ 3.72 µg/mL) | 8 (≈ 3.72 µg/mL) | 8 (≈ 3.72 µg/mL) | 8 (≈ 3.72 µg/mL) | 8 (≈ 3.72 µg/mL) | –
CCCCCCCNC(=O)Oc1ccc(Cl)cc1C(=O)Nc1ccc(Cl)cc1 | 2 (≈ 0.847 µg/mL) | 8 (≈ 3.39 µg/mL) | 2 (≈ 0.847 µg/mL) | 5.94 | 4 (≈ 1.69 µg/mL) | 8 (≈ 3.39 µg/mL) | 8 (≈ 3.39 µg/mL) | 4 (≈ 1.69 µg/mL) | 8 (≈ 3.39 µg/mL) | –
CCCCCCCNC(=O)Oc1ccc(Cl)cc1C(=O)Nc1cccc(Cl)c1 | 1 (≈ 0.423 µg/mL) | 8 (≈ 3.39 µg/mL) | 2 (≈ 0.847 µg/mL) | 5.94 | 8 (≈ 3.39 µg/mL) | 4 (≈ 1.69 µg/mL) | 8 (≈ 3.39 µg/mL) | 8 (≈ 3.39 µg/mL) | 8 (≈ 3.39 µg/mL) | –
CCCCCCCNC(=O)Oc1ccc(Cl)cc1C(=O)Nc1ccc(Cl)c(Cl)c1 | 0.5 (≈ 0.229 µg/mL) | 2 (≈ 0.916 µg/mL) | 1 (≈ 0.458 µg/mL) | 6.5 | 2 (≈ 0.916 µg/mL) | 2 (≈ 0.916 µg/mL) | 8 (≈ 3.66 µg/mL) | 4 (≈ 1.83 µg/mL) | 4 (≈ 1.83 µg/mL) | 43.4
CCCCCCCCNC(=O)Oc1ccc(Cl)cc1C(=O)Nc1ccc(Cl)c(Cl)c1 | 0.5 (≈ 0.236 µg/mL) | 4 (≈ 1.89 µg/mL) | 1 (≈ 0.472 µg/mL) | 6.92 | 2 (≈ 0.944 µg/mL) | 2 (≈ 0.944 µg/mL) | 8 (≈ 3.77 µg/mL) | 4 (≈ 1.89 µg/mL) | 4 (≈ 1.89 µg/mL) | 48.5
CCCCCCCCCNC(=O)Oc1ccc(Cl)cc1C(=O)Nc1ccc(Cl)c(Cl)c1 | 2 (≈ 0.972 µg/mL) | 8 (≈ 3.89 µg/mL) | 2 (≈ 0.972 µg/mL) | 7.34 | 4 (≈ 1.94 µg/mL) | 8 (≈ 3.89 µg/mL) | 8 (≈ 3.89 µg/mL) | 4 (≈ 1.94 µg/mL) | 8 (≈ 3.89 µg/mL) | –
CCCCCCCCNC(=O)Oc1ccc(Cl)cc1C(=O)Nc1ccc(Cl)cc1 | 2 (≈ 0.875 µg/mL) | 8 (≈ 3.5 µg/mL) | 2 (≈ 0.875 µg/mL) | 6.36 | 4 (≈ 1.75 µg/mL) | 8 (≈ 3.5 µg/mL) | 8 (≈ 3.5 µg/mL) | 4 (≈ 1.75 µg/mL) | 8 (≈ 3.5 µg/mL) | –
CCCCCCCCCCCNC(=O)Oc1ccc(Cl)cc1C(=O)Nc1cccc(Cl)c1 | 2 (≈ 0.959 µg/mL) | 8 (≈ 3.84 µg/mL) | 2 (≈ 0.959 µg/mL) | 7.61 | 8 (≈ 3.84 µg/mL) | 8 (≈ 3.84 µg/mL) | 8 (≈ 3.84 µg/mL) | 8 (≈ 3.84 µg/mL) | 8 (≈ 3.84 µg/mL) | –
CCCCCCCCCCNC(=O)Oc1ccc(Cl)cc1C(=O)Nc1ccc(Cl)c(Cl)c1 | 2 (≈ 1 µg/mL) | 4 (≈ 2 µg/mL) | 2 (≈ 1 µg/mL) | 7.77 | 2 (≈ 1 µg/mL) | 4 (≈ 2 µg/mL) | 8 (≈ 4 µg/mL) | 4 (≈ 2 µg/mL) | 8 (≈ 4 µg/mL) | –
CCCCNC(=O)Oc1ccc(Cl)cc1C(=O)Nc1ccc(Cl)cc1 | 2 (≈ 0.763 µg/mL) | 4 (≈ 1.53 µg/mL) | 2 (≈ 0.763 µg/mL) | 4.69 | 2 (≈ 0.763 µg/mL) | 4 (≈ 1.53 µg/mL) | 8 (≈ 3.05 µg/mL) | 4 (≈ 1.53 µg/mL) | 4 (≈ 1.53 µg/mL) | –
CCCCCCNC(=O)Oc1ccc(Cl)cc1C(=O)Nc1cccc(Cl)c1 | 0.5 (≈ 0.205 µg/mL) | 4 (≈ 1.64 µg/mL) | 1 (≈ 0.409 µg/mL) | 5.53 | 4 (≈ 1.64 µg/mL) | 4 (≈ 1.64 µg/mL) | 8 (≈ 3.27 µg/mL) | 4 (≈ 1.64 µg/mL) | 8 (≈ 3.27 µg/mL) | 14.9
CCCCCCCCNC(=O)Oc1ccc(Cl)cc1C(=O)Nc1cccc(Cl)c1 | 2 (≈ 0.875 µg/mL) | 8 (≈ 3.5 µg/mL) | 2 (≈ 0.875 µg/mL) | 6.36 | 4 (≈ 1.75 µg/mL) | 8 (≈ 3.5 µg/mL) | 4 (≈ 1.75 µg/mL) | 8 (≈ 3.5 µg/mL) | 4 (≈ 1.75 µg/mL) | –
NNC(=O)c1ccncc1 [ISONIAZID] | 0.5 (≈ 0.0686 µg/mL) | > 250 | 0.5 (≈ 0.0686 µg/mL) | – | 4 (≈ 0.549 µg/mL) | > 250 | > 250 | 4 (≈ 0.549 µg/mL) | > 250 | > 100
